Reference: ChEMBL document CHEMBL3832040, “DailyMed|setid=dbe8d4f6-c338-4076-9ae9-2e86c0767226 | TRIAMTERENE AND HYDROCHLOROTHIAZIDE- triamterene and hydrochlorothiazide tablet|Aidarex Pharmaceuticals LLC”

Assay: Evaluation of the Tmax of Hydrochlorothiazide following oral administration of hydrochlorothiazide
Assay type: ADME, organism-based
Conditions: human, in vivo, dosed compound id 30, dosed compound name HYDROCHLOROTHIAZIDE, tissue Plasma

Q: With `NS(=O)(=O)c1cc2c(cc1Cl)NCNS2(=O)=O` [HYDROCHLOROTHIAZIDE] as the compound, how does the Tmax read?
A: 2 h
